The assay concerns BDF1 mice, P388 leukemia ip, median survival T/C. Nature of the assay: NCI In Vivo Anticancer Drug Screen. Data for tumor model P388 Leukemia (intraperitoneal) in B6D2F1 (BDF1) mice. Particulars: endpoint: median survival time, higher = longer survival. Put shortly: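 Mice carrying the transplantable tumour receive compound or vehicle. Survival is followed in each arm, and the treated measure is divided by the vehicle measure.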

Setting [1] is: dose: 50.0 mg/kg/injection, schedule: Q01DX009 (ip), vehicle: saline with Tween-80.
Setting [2] is: dose: 200.0 mg/kg/injection, schedule: Q01DX009 (ip), vehicle: saline with Tween-80.
Setting [3] is: dose: 100.0 mg/kg/injection, schedule: Q01DX009 (ip), vehicle: saline with Tween-80.
[4] abbreviates: dose: 100.0 mg/kg/injection, schedule: Q04DX003 (ip), vehicle: saline with Tween-80.
The mark [5] stands for this setting: dose: 200.0 mg/kg/injection, schedule: Q04DX003 (ip), vehicle: saline with Tween-80.
[6] abbreviates: dose: 400.0 mg/kg/injection, schedule: Q04DX003 (ip), vehicle: saline with Tween-80.
Where [7] appears, read: dose: 200.0 mg/kg/injection, schedule: Q04DX003 (ip), vehicle: saline.
Setting [8] is: dose: 400.0 mg/kg/injection, schedule: Q04DX003 (ip), vehicle: saline.

Structures are written as SMILES. Where “and” joins values, the source holds several entries; their conditions need not be identical. Equal entries are not always repeated. Inconclusive results and toxic doses are left out. Non-standard residues stand in square brackets, D forms with d. Residues, ends and D or L forms follow the SMILES beside them. ξ: configuration not given here. *: point of attachment. Boc = CC(C)(C)OC(=O)*; ξP = O=C(O)C1CCCN1

Consider `[CH3][Hg][O]C(C)=O`, for which the T/C is 107 % of control (dose: 3.12 mg/kg/injection, schedule: Q01DX009 (ip), vehicle: Klucel (hydroxypropylcellulose) (HPC)) and 113 % of control (dose: 6.25 mg/kg/injection, schedule: Q01DX009 (ip), vehicle: Klucel (hydroxypropylcellulose) (HPC)).

Regarding `CC(O)(CCCCCCCC(C)(O)c1ccccc1)c1ccccc1` (stereo unspecified), the T/C is 100 % of control (dose: 100.0 mg/kg/injection, schedule: Q01DX001 (ip), vehicle: saline with Tween-80); 100 % of control (dose: 200.0 mg/kg/injection, schedule: Q01DX001 (ip), vehicle: saline with Tween-80); 100 % of control (dose: 400.0 mg/kg/injection, schedule: Q01DX001 (ip), vehicle: saline with Tween-80).

On to `C=CCCc1cc(OC)ccc1C(=O)C(C)C`, for which the T/C runs as follows: under setting [1], 112 % of control; under setting [2], 119 % of control.

With `CCCCC(OC(=O)c1ccccc1)c1cc(OC(=O)c2ccccc2)c2c(c1OC(=O)c1ccccc1)CC(C)=C(C)C2` (stereo unspecified), the T/C is 111 % of control (dose: 12.5 mg/kg/injection, schedule: Q04DX003 (ip), vehicle: saline with Tween-80) and 107 % of control (dose: 25.0 mg/kg/injection, schedule: Q04DX003 (ip), vehicle: saline with Tween-80).

For the molecule `O=[N+]([O-])c1ccc2c(c1)c(-c1cc(Cl)cc(Cl)c1)nc1ccccc12`, the T/C (dose: 25.0 mg/kg/injection, schedule: Q01DX009 (ip), vehicle: saline with Tween-80) was 108 % of control; the T/C under setting [1] is 97 % of control; the T/C under setting [3] is 101 % of control; the T/C under setting [4] was 99 % of control; the T/C under setting [2] was 90 % of control; the T/C under setting [5] was 88 % of control. Besides, the T/C is 99 % of control (dose: 400.0 mg/kg/injection, schedule: Q01DX009 (ip), vehicle: saline with Tween-80) and 107 % of control under setting [6].

Turning to `CCNC(=S)N/N=C\C=N/NC(=S)NCC`, the T/C (dose: 75.0 mg/kg/injection, schedule: Q01DX009 (ip), vehicle: saline with Tween-80) is 90 % of control and the T/C (dose: 300.0 mg/kg/injection, schedule: Q01DX009 (ip), vehicle: saline with Tween-80) was 91 % of control.

In the case of `CCOC(=O)C1=C2c3ccc4ccccc4c3CCC2(C)C(=O)C1` (stereo unspecified), the T/C (dose: 10.0 mg/kg/injection, schedule: Q01DX009 (sc), vehicle: steriod suspending solution) is 104 % of control; the T/C (dose: 18.0 mg/kg/injection, schedule: Q04DX003 (sc), vehicle: steriod suspending solution) was 91 % of control; the T/C (dose: 20.0 mg/kg/injection, schedule: Q01DX009 (sc), vehicle: steriod suspending solution) is 95 % of control; the T/C (dose: 37.5 mg/kg/injection, schedule: Q04DX003 (sc), vehicle: steriod suspending solution) is 95 % of control; the T/C (dose: 40.0 mg/kg/injection, schedule: Q01DX009 (sc), vehicle: steriod suspending solution) is 100 % of control; the T/C (dose: 75.0 mg/kg/injection, schedule: Q04DX003 (sc), vehicle: steriod suspending solution) was 108 % of control.

As to `CC#CCOCC1CN(C)C(=O)O1` (stereo unspecified), the T/C is, setting by setting: (dose: 25.0 mg/kg/injection, schedule: Q01DX009 (ip), vehicle: saline) 95 % of control; (dose: 50.0 mg/kg/injection, schedule: Q01DX009 (ip), vehicle: saline) 100 % of control; (dose: 50.0 mg/kg/injection, schedule: Q04DX003 (ip), vehicle: saline) 100 % of control; (dose: 100.0 mg/kg/injection, schedule: Q01DX009 (ip), vehicle: saline) 109 % of control; (dose: 200.0 mg/kg/injection, schedule: Q01DX009 (ip), vehicle: saline) 95 % of control; under setting [7], 91 % of control. The T/C under setting [8] was 87 % of control.

For the molecule `O=Cc1[nH]c(=S)[nH]c(=O)c1Cc1cccc(Cl)c1`, the T/C runs as follows: under setting [3], 115 % of control; under setting [4], 113 % of control; under setting [5], 118 % of control; under setting [6], 113 % of control.

As to `COc1cc2c(cc1OC)[C@H]1CNC[C@H]1[C@@H](c1ccccc1)C2`, the T/C reads like this: (dose: 95.0 mg/kg/injection, schedule: Q01DX001 (ip), vehicle: Klucel (hydroxypropylcellulose) (HPC)) 100 % of control; (dose: 100.0 mg/kg/injection, schedule: Q01DX001 (ip), vehicle: Klucel (hydroxypropylcellulose) (HPC)) 100 % of control and 110 % of control; (dose: 135.0 mg/kg/injection, schedule: Q01DX001 (ip), vehicle: Klucel (hydroxypropylcellulose) (HPC)) 104 % of control; (dose: 200.0 mg/kg/injection, schedule: Q01DX001 (ip), vehicle: Klucel (hydroxypropylcellulose) (HPC)) 95 % of control and 104 % of control; (dose: 300.0 mg/kg/injection, schedule: Q01DX001 (ip), vehicle: Klucel (hydroxypropylcellulose) (HPC)) 90 % of control.

Consider `OCCC1=CCC1`, for which the T/C by setting is: under setting [1], 101 % of control; under setting [3], 101 % of control; under setting [2], 111 % of control.

In the case of `CC(=O)OC(c1nc2ccccc2c(=O)n1C1CC2(OC1=O)c1ccccc1N1C(=O)C(C)N(O)C12)C(C)C` (stereo unspecified), the T/C is 93 % of control (dose: 4.0 mg/kg/injection, schedule: Q01DX009 (ip), vehicle: Klucel (hydroxypropylcellulose) (HPC)); 101 % of control (dose: 8.0 mg/kg/injection, schedule: Q01DX009 (ip), vehicle: Klucel (hydroxypropylcellulose) (HPC)); 110 % of control (dose: 16.0 mg/kg/injection, schedule: Q01DX009 (ip), vehicle: Klucel (hydroxypropylcellulose) (HPC)); 100 % of control (dose: 32.0 mg/kg/injection, schedule: Q01DX009 (ip), vehicle: Klucel (hydroxypropylcellulose) (HPC)).

Consider `COC(=O)CNC(=O)C1CCCN1C(=O)OC(C)(C)C` (stereo unspecified) (Boc-[ξP]-Gly-OMe), for which the T/C runs as follows: (dose: 100.0 mg/kg/injection, schedule: Q04DX003 (ip), vehicle: saline) 100 % of control; under setting [7], 105 % of control; under setting [8], 95 % of control.

Turning to `CC[N+](CC)(CC)CCC[N+](CC)(CC)CC`, the T/C was 89 % of control (dose: 50.0 mg/kg/injection, schedule: Q01DX009 (ip), vehicle: water); 109 % of control (dose: 100.0 mg/kg/injection, schedule: Q04DX003 (ip), vehicle: water); 90 % of control (dose: 200.0 mg/kg/injection, schedule: Q04DX003 (ip), vehicle: water).

`CN(N=O)C(=O)Nc1ccc(C(=O)O)cc1`: the T/C is, setting by setting: (dose: 29.0 mg/kg/injection, schedule: Q04DX003 (ip), vehicle: saline with Tween-80) 159 % of control; (dose: 45.0 mg/kg/injection, schedule: Q04DX003 (ip), vehicle: saline with Tween-80) 163 % of control; (dose: 66.0 mg/kg/injection, schedule: Q04DX003 (ip), vehicle: saline with Tween-80) 170 % of control; under setting [4], 250 % of control; (dose: 150.0 mg/kg/injection, schedule: Q04DX003 (ip), vehicle: saline with Tween-80) 240 % of control.

On to `CC(=O)OCCC/C(=C/c1cc2ccccc2c2ccccc12)[N+](=O)[O-]`, for which the T/C was 115 % of control (dose: 100.0 mg/kg/injection, schedule: Q01DX009 (ip), vehicle: Klucel (hydroxypropylcellulose) (HPC)) and 120 % of control (dose: 200.0 mg/kg/injection, schedule: Q01DX009 (ip), vehicle: Klucel (hydroxypropylcellulose) (HPC)).

As for `Cc1cc2nc(CBr)c(CBr)nc2cc1C`, the T/C (dose: 1.56 mg/kg/injection, schedule: Q01DX009 (ip), vehicle: saline) is 120 % of control; the T/C (dose: 3.12 mg/kg/injection, schedule: Q01DX009 (ip), vehicle: saline) is 120 % of control; the T/C (dose: 3.12 mg/kg/injection, schedule: Q04DX003 (ip), vehicle: saline) was 95 % of control; the T/C (dose: 6.25 mg/kg/injection, schedule: Q01DX009 (ip), vehicle: saline) was 95 % of control; the T/C (dose: 6.25 mg/kg/injection, schedule: Q04DX003 (ip), vehicle: saline) is 100 % of control; the T/C (dose: 8.75 mg/kg/injection, schedule: Q01DX001 (ip), vehicle: Klucel (hydroxypropylcellulose) (HPC)) is 94 % of control. Besides, the T/C is, setting by setting: (dose: 12.5 mg/kg/injection, schedule: Q04DX003 (ip), vehicle: saline) 90 % of control; (dose: 17.5 mg/kg/injection, schedule: Q01DX001 (ip), vehicle: Klucel (hydroxypropylcellulose) (HPC)) 88 % of control; (dose: 18.0 mg/kg/injection, schedule: Q04DX003 (ip), vehicle: saline) 90 % of control; (dose: 35.0 mg/kg/injection, schedule: Q01DX001 (ip), vehicle: Klucel (hydroxypropylcellulose) (HPC)) 88 % of control.

The record behind these values is PubChem BioAssay AID328 (DTP/NCI, 2004).
